The values below are quoted from earlier work in patent publication US20100168247A1, “SOLID COMPOSITES OF A CALCIUM RECEPTOR-ACTIVE COMPOUND” (TEVA PHARMACEUTICAL INDUSTRIES LTD., priority 2006, published 2010).

Each structure is given as a SMILES string.

`C[C@@H](NCCCc1cccc(C(F)(F)F)c1)c1cccc2ccccc12.Cl` [cinacalcet, (R)—N-[1-(1-naphthyl)ethyl]-3-[3-(trifluoromethyl)phenyl]propan-1-amine hydrochloride]: the solubility result (pH 1) is on record as “about 0.1 mg/ml”. The solubility in water result (pH 7) is listed as “less than 1 μg/ml”.
